In patent US20090043129A1 (priority 2005, published 2009):
Like-named read-outs stand apart in the source and are kept apart here.

Experiments:
[1] = target: human recombinant CB1 receptor (Homo sapiens, UniProt P21554); type: binding; set-up: purchased Perkin-Elmer; host or cells: COS cells
CB2 = target: T1, CB2 (Rattus norvegicus, UniProt Q9QZN9); test: Preliminary selection with rat spleen membranes; type: binding; conditions: rat brain and spleen membranes, read-out: CB2 (n.a. class, IC50 in preliminary selection)
T1 construct: from tissue; host or cells: rat spleen membranes
T1 sequence (Q9QZN9 1-360): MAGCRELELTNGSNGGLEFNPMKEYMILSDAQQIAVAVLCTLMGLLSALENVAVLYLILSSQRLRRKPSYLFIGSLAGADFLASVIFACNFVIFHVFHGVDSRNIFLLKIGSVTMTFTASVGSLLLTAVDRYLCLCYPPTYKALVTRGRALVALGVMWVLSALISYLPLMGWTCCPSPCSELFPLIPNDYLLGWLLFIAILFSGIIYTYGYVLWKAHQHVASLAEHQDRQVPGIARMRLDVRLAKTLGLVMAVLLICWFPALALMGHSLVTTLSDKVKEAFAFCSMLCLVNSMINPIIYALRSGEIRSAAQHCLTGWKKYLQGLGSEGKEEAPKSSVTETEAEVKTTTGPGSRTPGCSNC

[2] = target: T2, Fatty Acid Amide Hydrolase (FAAH) (Rattus norvegicus, UniProt P97612); test: biochemical
T2 sequence (P97612 1-579): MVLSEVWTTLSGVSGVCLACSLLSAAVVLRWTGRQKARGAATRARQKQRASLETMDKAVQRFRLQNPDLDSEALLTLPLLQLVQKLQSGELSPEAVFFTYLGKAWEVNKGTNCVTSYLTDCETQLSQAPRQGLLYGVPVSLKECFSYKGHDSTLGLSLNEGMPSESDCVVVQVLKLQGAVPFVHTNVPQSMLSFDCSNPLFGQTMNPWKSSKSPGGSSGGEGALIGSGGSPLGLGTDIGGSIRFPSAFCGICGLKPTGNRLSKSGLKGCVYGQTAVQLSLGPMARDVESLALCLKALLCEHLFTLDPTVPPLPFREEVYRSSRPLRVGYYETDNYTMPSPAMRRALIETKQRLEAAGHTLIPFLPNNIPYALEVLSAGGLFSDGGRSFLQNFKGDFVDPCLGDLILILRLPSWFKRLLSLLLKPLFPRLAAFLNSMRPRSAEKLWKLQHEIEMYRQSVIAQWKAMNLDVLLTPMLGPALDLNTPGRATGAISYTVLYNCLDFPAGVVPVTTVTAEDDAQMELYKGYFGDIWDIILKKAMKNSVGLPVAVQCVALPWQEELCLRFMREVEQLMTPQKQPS
Experimental: Assay for Fatty Acid Amide Hydrolase (FAAH)
The effect of compounds on the enzymatic hydrolysis of [^14C]anandamide (6 μM) was studied using membranes prepared from rat brain incubated with increasing concentrations of compounds in 50 mM Tris-HCl, pH 9, for 30 minutes at 37° C. (Di Marzo et al., 2002). [^14C]ethanolamine produced from [^14C]anandamide hydrolysis was measured counting the scintillation of the aqueous phase after extraction of the incubation mixture with 2 volumes of CHCl3/CH3OH (2:1 by volume). […]

[3] = target: human recombinant CB2 receptor (Homo sapiens, UniProt P34972); test: CB2 binding, [3H]CP55,940 displacement, membranes from transfected COS cells; set-up: purchased Perkin-Elmer; host or cells: COS cells; conditions: for Ki: recombinant human CB2, COS cell membranes
Sequence of human recombinant CB2 receptor (P34972 whole entry): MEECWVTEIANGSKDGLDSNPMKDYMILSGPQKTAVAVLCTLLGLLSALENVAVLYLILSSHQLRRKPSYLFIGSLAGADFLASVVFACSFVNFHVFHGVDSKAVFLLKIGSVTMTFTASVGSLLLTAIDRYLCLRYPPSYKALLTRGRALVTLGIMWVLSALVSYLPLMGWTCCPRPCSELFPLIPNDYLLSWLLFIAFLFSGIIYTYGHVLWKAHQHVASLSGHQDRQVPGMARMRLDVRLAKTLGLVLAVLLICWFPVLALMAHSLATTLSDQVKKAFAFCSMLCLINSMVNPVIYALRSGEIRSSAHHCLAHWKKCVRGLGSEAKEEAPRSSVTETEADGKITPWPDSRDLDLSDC

[4] = test system: Anandamide Membrane Transporter (AMT); test: Anandamide uptake by RBL-2H3 cells; type: cell-based
Experimental: Assay for the Anandamide Membrane Transporter (AMT)
The effect of the compounds on the uptake of anandamide by the RBL-2H3 cells was studied as described (Di Marzo et al., 2002). Cells were incubated with [^14C]anandamide (4 μM) for 5 minutes at 37° C., in the presence or absence of varying concentrations of the inhibitors. Residual [^14C]anandamide in the incubation media after extraction with CHCl3/CH3OH (2:1 by volume) was used as a measure of the anandamide that was taken up by cells. Data are expressed as the concentration that produces 50% of inhibition of anandamide uptake (IC50) calculated with GraphPad.

[5] = recombinant human CB1, COS cell membranes
[6] = rat brain membranes, read-out: FAAH (n.a. class)
[7] = anandamide uptake, read-out: AMT IC50

Sequence of human recombinant CB1 receptor (P21554 whole entry): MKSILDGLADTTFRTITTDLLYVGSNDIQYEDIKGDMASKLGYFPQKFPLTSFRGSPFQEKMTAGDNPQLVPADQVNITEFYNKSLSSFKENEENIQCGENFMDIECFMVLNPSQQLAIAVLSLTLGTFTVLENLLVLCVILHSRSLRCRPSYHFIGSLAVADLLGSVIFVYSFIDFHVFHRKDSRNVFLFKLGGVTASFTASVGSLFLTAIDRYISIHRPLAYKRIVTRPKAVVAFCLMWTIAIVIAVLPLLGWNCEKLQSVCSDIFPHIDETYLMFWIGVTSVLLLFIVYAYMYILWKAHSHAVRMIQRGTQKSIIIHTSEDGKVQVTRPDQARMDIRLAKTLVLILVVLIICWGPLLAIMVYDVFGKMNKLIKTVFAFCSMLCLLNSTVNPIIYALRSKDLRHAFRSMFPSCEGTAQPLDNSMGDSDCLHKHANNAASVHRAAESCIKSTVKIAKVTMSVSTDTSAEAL

For `O=C(CCCCCCCCCCCCCCCOc1cccc(O)c1)NC1CC1` [Compound 37, 16-(3-Hydroxy-phenoxy)-hexadecanoic acid cyclopropylamide], which Ki [1, 5] is on record?
The Ki was 4.25 µM.

And the melting point?
The melting point was 105.6 °C.

What about the IC50 (CB2) of the same molecule?
The IC50 was greater than 10 µM.

Which melting point does the source give for `CCCCCCc1ccc(O)cc1OCCCCCC(=O)Nc1ccc(O)cc1` here?
Its melting point is 106 °C.

With `CCCCCCc1ccc(O)cc1OCCCCCC(=O)NCCO` [Compound 48, 6-(2-Hexyl-5-hydroxy-phenoxy)-hexanoic acid (2-hydroxy-ethyl)-amide] as the molecule, how does the IC50 [2, 6] read?
The IC50 was greater than 10 µM.

For `CCCCCCc1ccc(O)cc1OCCCCCC(=O)NC1CC1` [Compound 49, 6-(2-Hexyl-5-hydroxy-phenoxy)-hexanoic acid cyclopropylamide], which IC50 [2] is on record?
The IC50 was greater than 10 µM.

What about the Ki [3] of the same molecule?
Its Ki is 3.57 µM.

With `CCCCCc1cc(O)cc(OCCCCCCCCCCCCCCCC(=O)NCCO)c1` [Compound 27, 16-(3-Hydroxy-5-pentyl-phenoxy)-hexadecanoic acid (2-hydroxy-ethyl)-amide] as the molecule, how does the Ki [1, 5] read?
Its Ki is 12.5 µM.

What about the melting point of the same molecule?
The melting point was 84 to 85 °C.

And the IC50 (CB2)?
Its IC50 is greater than 10 µM.

For `CCCCCc1cc(O)cc(OCCCCCC(=O)NC2CC2)c1` [Compound 22, 6-(3-Hydroxy-5-pentyl-phenoxy)-hexanoic acid cyclopropylamide], which IC50 [2] is on record?
The IC50 was greater than 10 µM.

And the Ki [3]?
Its Ki is 0.96 µM.

Which results are given for `CCCCCCc1ccc(OCCCCCCCCCCC(=O)NC2CC2)cc1O` [Compound 43, 11-(3-Hydroxy-4-hexyl-phenoxy)-undecanoic acid cyclopropylamide]?
IC50 [2]: > 10 µM; IC50 [4, 7]: > 25 µM; selectivity for CB2 with respect to the CB1 receptors ([3]; CB1 Ki / CB2 Ki): at least 26 times; Ki [3]: 0.35 µM

Which results are given for `CCCCCCc1ccc(OCCCCCCCCCCC(=O)NCCO)cc1O` [Compound 42, 11-(3-Hydroxy-4-hexyl-phenoxy)-undecanoic acid (2-hydroxy-ethyl)-amide]?
melting point: 85.3 °C; IC50 [2, 6]: > 10 µM; IC50 ([4]; read-out: AMT (n.a. class)): > 10 µM; Ki [3]: 2.7 µM

Which melting point does the source give for `O=C(CCCCCCCCCCCCCCCOc1cccc(O)c1)NCCO` [Compound 36, 16-(3-Hydroxy-phenoxy)-hexadecanoic acid (2-hydroxy-ethyl)-amide] here?
Its melting point is 94.5 °C.

And the IC50 (CB2)?
The IC50 was greater than 10 µM.

With `O=C(CCCCCCCCCCCCCCCOc1cccc(O)c1)Nc1ccc(O)cc1` [Compound 38, 16-(3-Hydroxy-phenoxy)-hexadecanoic acid (4-hydroxy-phenyl)-amide] as the molecule, how does the Ki [1, 5] read?
The Ki was 5 µM.

What does the source list for `CCCCCCc1ccc(O)cc1OCCCCCCCCCCCCCCCC(=O)NC1CC1` [Compound 55, 16-(2-Hexyl-5-hydroxy-phenoxy)-hexadecanoic acid cyclopropylamide]?
Ki [1]: 5.5 µM; melting point: 72.8 °C; Ki [3]: 2.49 µM

With `CCCCCCc1ccc(OCCCCCC(=O)NCCO)cc1O` [Compound 39, 6-(3-Hydroxy-4-hexyl-phenoxy)-hexanoic acid (2-hydroxy-ethyl)-amide] as the molecule, how does the melting point read?
The melting point was 71.2 °C.

And the IC50 [2]?
Its IC50 is greater than 10 µM.

What about the Ki [3] of the same molecule?
The Ki was 6.43 µM.

With `CCCCCCc1ccc(O)cc1OCCCCCCCCCCCCCCCC(=O)Nc1ccc(O)cc1` [Compound 56, 16-(2-Hexyl-5-hydroxy-phenoxy)-hexadecanoic acid (4-hydroxy-phenyl)-amide] as the molecule, how does the Ki [1, 5] read?
The Ki was 3 µM.

What about the melting point of the same molecule?
The melting point was 82.4 °C.

What about the IC50 (CB2) of the same molecule?
The IC50 was greater than 10 µM.

With `O=C(CCCCCOc1cccc(O)c1)NC1CC1` [Compound 31, 6-(3-Hydroxy-phenoxy)-hexanoic acid cyclopropylamide] as the molecule, how does the IC50 [2] read?
The IC50 was greater than 10 µM.

With `CCCCCCCCCCCCCCCc1cccc(OCCCCCCCCCCC(=O)Nc2ccc(O)cc2)c1` [Compound 20, 11-(3-Pentadecyl-phenoxy)-undecanoic acid (4-hydroxy-phenyl)-amide] as the molecule, how does the melting point read?
The melting point was 107 °C.

For `O=C(CCCCCCCCCCOc1cccc(O)c1)NC1CC1` [Compound 34, 11-(3-Hydroxy-phenoxy)-undecanoic acid cyclopropilamide], which IC50 [2] is on record?
Its IC50 is greater than 10 µM.

What about the Ki [3] of the same molecule?
The Ki was 5.4 µM.

For `O=C(CCCCCOc1cccc(O)c1)NCCO` [Compound 30, 6-(3-Hydroxy-phenoxy)-hexanoic acid (2-hydroxy-ethyl)-amide], which IC50 [2] is on record?
The IC50 was greater than 10 µM.

Which melting point does the source give for `CCCCCc1cc(O)cc(OCCCCCC(=O)Nc2ccc(O)cc2)c1` [Compound 23, 6-(3-Hydroxy-5-pentyl-phenoxy)-hexanoic acid (4-hydroxy-phenyl)amide] here?
Its melting point is 69.2 °C.

And the IC50 [2]?
The IC50 was greater than 10 µM.

Which results are given for `CCCCCCCCCCCCCCCc1cccc(OCCCCCC(=O)NCCO)c1` [Compound 15, 6-(3-Pentadecyl-phenoxy)-hexanoic acid (2-hydroxy-ethyl)-amide]?
melting point: 62.7 °C; IC50 [2, 6]: > 10 µM; IC50 [4, 7]: > 25 µM

Which results are given for `CCCCCc1cc(O)cc(OCCCCCC(=O)NCCO)c1` [Compound 21, 6-(3-Hydroxy-5-pentyl-phenoxy)-hexanoic acid (2-hydroxy-ethyl)-amide]?
IC50 (CB2): > 10 µM; IC50 [2]: > 10 µM

Which results are given for `CCCCCc1cc(O)cc(OCCCCCCCCCCC(=O)Nc2ccc(O)cc2)c1` [Compound 26, 11-(3-Hydroxy-5-pentyl-phenoxy)-undecanoic acid (4-hydroxy-phenyl)-amide]?
Ki [1, 5]: 3 µM; IC50 [2]: > 10 µM; IC50 ([4]; read-out: AMT (n.a. class)): > 10 µM; Ki [3]: 1.4 µM

Which melting point does the source give for `O=C(CCCCCCCCCCOc1cccc(O)c1)NCCO` [Compound 33, 11-(3-Hydroxy-phenoxy)-undecanoic acid (2-hydroxy-ethyl)-amide] here?
The melting point was 72.1 °C.

What about the IC50 (CB2) of the same molecule?
Its IC50 is greater than 10 µM.

And the IC50 [2]?
The IC50 was greater than 10 µM.

Which melting point does the source give for `CCCCCCc1ccc(O)cc1OCCCCCCCCCCC(=O)NCCO` [Compound 51, 11-(2-Hexyl-5-hydroxy-phenoxy)-undecanoic acid (2-hydroxy-ethyl)-amide] here?
The melting point was 75.4 °C.

And the IC50 [2]?
Its IC50 is greater than 10 µM.

What about the IC50 [4, 7] of the same molecule?
Its IC50 is greater than 25 µM.

What about the Ki [3] of the same molecule?
Its Ki is 0.42 µM.

For `CCCCCCCCCCCCCCCc1cccc(OCCCCCC(=O)NC2CC2)c1` [Compound 16, 6-(3-Pentadecyl-phenoxy)-hexanoic acid cyclopropylamide], which melting point is on record?
Its melting point is 67.8 °C.

What about the IC50 [2] of the same molecule?
Its IC50 is greater than 10 µM.

For `CCCCCCCCCCCCCCCc1cccc(OCCCCCC(=O)Nc2ccc(O)cc2)c1` [Compound 17, 6-(3-Pentadecyl-phenoxy)-hexanoic acid (4-hydroxy-phenyl)-amide], which melting point is on record?
The melting point was 103.2 °C.

And the IC50 [2, 6]?
The IC50 was greater than 10 µM.

What about the IC50 [4, 7] of the same molecule?
Its IC50 is greater than 25 µM.

For `CCCCCCc1ccc(OCCCCCCCCCCCCCCCC(=O)Nc2ccc(O)cc2)cc1O` [Compound 47, 16-(3-Hydroxy-4-hexyl-phenoxy)-hexadecanoic acid (4-hydroxy-phenyl)-amide], which melting point is on record?
Its melting point is 133.2 °C.

And the IC50 (CB2)?
Its IC50 is greater than 10 µM.

Which melting point does the source give for `CCCCCCc1ccc(OCCCCCC(=O)Nc2ccc(O)cc2)cc1O` here?
The melting point was 128.4 °C.

With `CCCCCc1cc(O)cc(OCCCCCCCCCCCCCCCC(=O)NC2CC2)c1` [Compound 28, 16-(3-Hydroxy-5-pentyl-phenoxy)-hexadecanoic acid cyclopropylamide] as the molecule, how does the melting point read?
Its melting point is 91 °C.

What about the IC50 (CB2) of the same molecule?
The IC50 was greater than 10 µM.

With `CCCCCCCCCCCCCCCc1cccc(OCCCCCCCCCCC(=O)NC2CC2)c1` [Compound 19, 11-(3-Pentadecyl-phenoxy)-undecanoic acid cyclopropylamide] as the molecule, how does the melting point read?
Its melting point is 82 °C.

With `CCCCCCCCCCCCCCCc1cccc(OCCCCCCCCCCC(=O)NCCO)c1` [Compound 18, 11-(3-Pentadecyl-phenoxy)-undecanoic acid (2-hydroxy-ethyl)-amide] as the molecule, how does the melting point read?
The melting point was 83 to 85 °C.

With `CCCCCc1cc(O)cc(OCCCCCCCCCCCCCCCC(=O)Nc2ccc(O)cc2)c1` [Compound 29, 16-(3-Hydroxy-5-pentyl-phenoxy)-hexadecanoic acid (4-hydroxy-phenyl)-amide] as the molecule, how does the melting point read?
The melting point was 89.5 °C.

And the IC50 (CB2)?
The IC50 was greater than 10 µM.
